The values that follow come from US11230579B2, “Method of treating BCL-2 over-expressing disorders using arts containing a BH3-like domain” (CARMEL-HAIFA UNIVERSITY ECONOMIC CORPORATION LTD., priority 2012, dated 2022).

Like-named read-outs stand apart in the source and are kept apart here. Residues, ends and D or L forms follow the SMILES beside them. *: point of attachment. Cbz = O=C(OCc1ccccc1)*

The test system of assay [1] is small cell lung cancer xenographs, acute lymphoblastic leukemia and hematologic tumors. Particulars: cited from earlier work.
The next assay addresses Bcl-XL (Homo sapiens, UniProt Q07817). Particulars: cited from earlier work.
Assay [2] has as its system Bcl-2. As to conditions: cited from earlier work.
The test system of another assay is solid tumors. As to conditions: panel of pediatric tumors; cited from earlier work.
The subject of assay [3] is acute lymphocytic leukemia. As to conditions: panel of pediatric tumors; cited from earlier work.
In assay [4] the test system is Bcl-2. Description: IP with anti ARTS Ab after ABT-263 treatment with or without QVD: binding of ARTS to Bcl-2. Particulars: in the presence of QVD. The format is cell-based, human. Here is the method: Co immunoprecipitation was performed as previously described (Gottfried et al., 2004). Briefly, 10 μg of anti-ARTS antibody or 2 μg of anti-Bcl-2 or anti-XIAP antibody were added to the protein lysate and the samples were left rotating overnight at 4° C. On the following day, agarose beads conjugated to protein A/G (Santa Cruz) were added for 4 h. Samples were centrifuged at 4000 rpm, 4° C. for 5 min and washed three times with PBS. Proteins were eluted from beads following 5 min of boiling in sample buffer and separated on 12.5% SDS-PAGE gel, followed by Western blot analysis.
ABT is a known BH3 mimetics antagonist of Bcl-2 that binds the hydrophobic binding groove in Bcl-2 that includes the BH3 domain. […] Addition of QVD was done to examine whether the binding of ARTS to Bcl-2 occurs before initiation of caspase activation. An IP assay using monoclonal mouse anti ARTS Ab followed by Western Blot was performed by using Bcl-2, ARTS and Actin antibodies.

For the next assay, the system named is HeLa cells. Description: Induction of apoptosis by ABT-263 (C-PARP, C-Casp3 Western blot). The format is cell-based, human. How it is done:
(§1) ABT-263 is a Bcl-2 antagonist targeting the BH3 domain and leading to initiation of apoptosis within two hours after treatment. The effect of ABT-263 was studied in HeLa cells and HeLa cells in which ARTS expression was knocked-down using shRNA method (HeLa KD ARTS). HeLa and HeLa KD ARTS cells were treated with different concentrations of ABT-263 at different incubation time points (0, 16 and 24 Hours). Lysates were separated using SDS-PAGE method. To evaluate apoptosis, Western Blot analysis was performed using antibodies recognizing Cleaved-PARP (C-PARP), Cleaved-casp3 (C-Casp3), Bcl-2, ARTS, XIAP and Actin (FIG. 8A).
(In western blotting, separated proteins are transferred to a membrane and probed.)

In the next assay the target is T1, Bcl-W (Homo sapiens, UniProt Q92843).
T1 sequence (Q92843 1-193): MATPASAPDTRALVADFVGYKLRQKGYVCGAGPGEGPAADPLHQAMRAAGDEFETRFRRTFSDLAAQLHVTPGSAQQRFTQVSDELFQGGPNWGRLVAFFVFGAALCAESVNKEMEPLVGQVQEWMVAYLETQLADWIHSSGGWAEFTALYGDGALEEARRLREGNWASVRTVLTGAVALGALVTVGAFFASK
As to conditions: cited from earlier work.

A further assay has as its system HeLa KD ARTS cells. Description: Induction of apoptosis by ABT-263 in ARTS knocked-down cells. The format is cell-based, human. Particulars: ARTS KD HeLa cells (absence of ARTS). How it is done: as §1
In assay [5] the test system is tumor types with an over expression of Mcl-1. As to conditions: cited from earlier work.
Assay [6] concerns Bcl-2. Particulars: different cell lines and mouse embryonic fibroblasts (MEFs), Western blot.
Assay [7] has as its system Bcl-2. Nature of the assay: Over-expression of ARTS in COS-7 cells, Bcl-2 levels by Western blot and densitometry. The format is cell-based. Particulars: COS-7 cells transfected with Bcl-2 or Bcl-2 and ARTS, 16 h. The text has this:
For transient transfections jetPEI™ (Polyplus Transfection) and Transfectol (GeneChoice) reagents were used according to the manufacturers' instructions.
To determine whether ARTS promotes apoptosis by regulating the levels of Bcl-2, the inventors first over-expressed ARTS in COS-7 cells. More specifically, COS-7 cell were transiently transfected with ARTS, Bcl-2 or empty vector or co-transfected with both constructs.

In assay [8] the test system is Bcl-2. Nature of the assay: Myc beads pull-down of ARTS and Bcl-2 in co-transfected COS-7 cells. The format is binding. Particulars: COS-7 cells co-transfected with Bcl-2 and ARTS. Here is the method:
COS-7 cells were co-transfected with different constructs as detailed herein. The cells were lysed in RIPA buffer (150 mM NaCl, 50 mM Tris-HCl (pH 8), 1% NP-40, 0.5% deoxycholate acid containing protease inhibitors (mini Complete, Roche)). The samples were left rotating overnight at 4° C. with the anti-Myc-beads (Santa Cruz). Samples were centrifuged at 4000 rpm, 4° C. for 5 min and washed four times in PBS. Proteins were eluted from beads following 5 min of boiling in sample buffer. Proteins were separate on 12.5% SDS-PAGE gel, followed by Western blot analysis.
The mechanism by which ARTS regulates Bcl-2 levels was further tested using a pull-down assay in COS-7 cells which were co-transfected with Bcl-2 and ARTS expression vectors. Pull-down assays were performed using agarose anti-myc beads followed by Western blot analysis using mouse anti-ARTS and anti-Bcl-2 antibodies.

Assay [9] has as its system Bcl-2. Nature of the assay: Proteasome inhibition in transfected COS-7 cells, Bcl-2 levels. The format is cell-based. As to conditions: COS-7 cells transfected with Bcl-2 or Bcl-2 and ARTS, 6 h. Here is the method:
For the proteasome inhibition studies the cells were incubated with MG132 (20 μM) for 6 hours.
COS-7 cells transiently transfected with Bcl-2 or co-transfected with Bcl-2 and ARTS constructs were incubated with a potent proteasome inhibitor MG132 for 6 h to evaluate the effect of the ubiquitin-proteasome system (UPS) on Bcl-2 degradation.

Assay [10] concerns Bcl-2. Description: Functional-structural pull-down assay with anti Bcl2 antibody in transfected HeLa cells. The format is binding, human. Particulars: pull-down with Bcl-2 antibodies. How it is done:
HeLa cells were transiently transfected with Full length ARTS plasmid and 128 amino acids N′ terminus deletion of ARTS plasmid, for 24 hrs. The cells were extracted using RIPA-SDS lysis buffer. Immunoprecipitation was done by incubation of lysates overnight with anti Bcl2 antibody (BD), followed by precipitation done with protein A/G beads (Santa Cruz). Western blot analysis was performed using monoclonal anti ARTS antibody directed against its unique C terminus (Sigma).
In order to identify the Bcl-2 binding domain in ARTS, the inventors examined whether deletion of different fragments of ARTS, namely, the N-terminal 128 amino-acid residues may have an effect. Therefore, pull-down experiments were performed in HeLa cells transfected with either the full length ARTS or a deletion mutant thereof.

Bcl-XL, sequence (Q07817 whole entry): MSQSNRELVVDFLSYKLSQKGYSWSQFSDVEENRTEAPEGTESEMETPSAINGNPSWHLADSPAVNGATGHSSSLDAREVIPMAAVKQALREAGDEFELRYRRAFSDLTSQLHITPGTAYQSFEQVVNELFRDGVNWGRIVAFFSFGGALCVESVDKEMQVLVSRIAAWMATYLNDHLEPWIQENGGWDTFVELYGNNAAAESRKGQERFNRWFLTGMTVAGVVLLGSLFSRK

With `CC1(C)CCC(c2ccc(Cl)cc2)=C(CN2CCN(c3ccc(C(=O)NS(=O)(=O)c4ccc(N[C@H](CCN5CCOCC5)CSc5ccccc5)c(S(=O)(=O)C(F)(F)F)c4)cc3)CC2)C1` [ABT-263, 4-[4-[[2-(4-Chlorophenyl)-5,5-dimethyl-1-cyclohexen-1-yl]methyl]-1-piperazinyl]-N-[[4-[[(1R)-3-(4-morpholinyl)-1-[(phenylthio)methyl]propyl]amino]-3-[(trifluoromethyl)sulfonyl]phenyl]sulfonyl]benzamide], the efficacy against tumors result in [1] is listed as “effective”. In addition, on Bcl-XL, the “binding to Bcl-XL” value is “high affinity”. In addition, the “binding to Bcl-2” value with Bcl-2 [2] is “high affinity”. In addition, the “efficacy as a single agent against solid tumors” value in the assay on solid tumors was “not effective”. Also, in [3], the “efficacy against acute lymphocytic leukemia” value is reported as “highly significant”. Further, the “binding of ARTS to Bcl-2 after treatment” value in the assay on Bcl-2 [4] (25 μM, 3 and 24 hours) is “significant increase in binding of ARTS to Bcl-2”. In addition, in the assay with Bcl-2 [4], the “inhibition of the binding of ARTS to Bcl-2” value was “fails to inhibit”. The “apoptosis (level of C-PARP and C-Casp3) with increased concentrations” value in the assay with HeLa cells is given as “increased apoptosis”. Further, the apoptosis entry in the assay with HeLa cells (25 μM for 24H) is on record as “induction of apoptosis”. Further, the “concentration giving optimal induction of apoptosis” value in the assay with HeLa cells (24 h) was 25 µM. Besides, the “binding to Bcl-W” value at Bcl-W is “high affinity”. Further, the “apoptosis (C-PARP and C-Casp3 levels)” value in the assay on HeLa KD ARTS cells is listed as “not able to induce apoptosis”; in the assay with HeLa KD ARTS cells (listed as ABT), “lower apoptosis rates”.

As for `CN(C)CC[C@H](CSc1ccccc1)Nc1ccc(S(=O)(=O)NC(=O)c2ccc(N3CCN(Cc4ccccc4-c4ccc(Cl)cc4)CC3)cc2)cc1[N+](=O)[O-]` [ABT-737, (R)-4-(4-((4′-chloro-[1,1′-biphenyl]-2-yl)methyl)piperazin-1-yl)-N-((4-((4-(dimethylamino)-1-(phenylthio)butan-2-yl)amino)-3-nitrophenyl)sulfonyl)benzamide], the “binding to Bcl-XL” value at Bcl-XL was “high affinity”. Moreover, the “binding to Bcl-2” value in the assay on Bcl-2 [2] is on record as “high affinity”. Besides, the “effect in tumor types with an over expression of Mcl-1” value in assay [5] was “no effect”. Besides, the “binding to Bcl-W” value at Bcl-W is reported as “high affinity”.

Consider `COc1cc([C@@H]2c3cc4c(cc3[C@@H](O[C@@H]3O[C@@H]5CO[C@@H](C)O[C@H]5[C@H](O)[C@H]3O)[C@H]3COC(=O)[C@H]23)OCO4)cc(OC)c1O` [Etoposide], for which the “Bcl-2 levels upon induction of apoptosis” value in the assay with Bcl-2 [6] is reported as “down regulated”. In addition, in the assay with Bcl-2 [7], the “Bcl-2 level on treatment” value is listed as “further reduction of Bcl-2 level”. In addition, the “fate of ARTS/Bcl-2 complex upon induction of apoptosis” value with Bcl-2 [8] is on record as “degraded”.

As to `CC(C)C[C@@H](C=O)NC(=O)[C@H](CC(C)C)NC(=O)[C@H](CC(C)C)NC(=O)OCc1ccccc1` [MG132] (Cbz-Leu-Leu-Leu-aldehyde), the “Bcl-2 levels during proteasome inactivation” value in the assay on Bcl-2 [9] is on record as “accumulation of Bcl-2 levels”.

B1: 128aa N′del ARTS: deletion mutant of ARTS lacking the N′ terminal 128 amino acid residues (protein)
chain: MVAGESGLGKSTLVNSLFLTDLYRDRKLLGAEERIMQTVEITKHAVDIEEKGVRLRLTIVDTPGFGDAVNNTECWKPVAEYIDQQFEQYFRDESGLNRKNIQDNRVHCCLYFISPFGHGYGPSLRLLAPPGAVKGTGQEHQGQGCH
B1: the “binding to Bcl-2” value in the assay with Bcl-2 [10] is “does not bind to Bcl-2”.
